These results are taken from paper PMC12306498, “Microwave-assisted synthesis of tubulin assembly inhibitors as anticancer agents by aryl ring reversal and conjunctive approach” (RSC Medicinal Chemistry, 2025).

A word on the IC50: it is the concentration that inhibits the measured activity by half.

“And” between values parts separate entries of the source, which are not always exact repeats. Equal entries are not always repeated.

Assay [1] relates to tubulin. Briefly: Inhibition of [3H]colchicine binding to tubulin. The note with it: for Colch. binding (% ± SD): inhibition of [3H]colchicine binding, tubulin, [3H]colchicine, inhibitor at 1, 5 and 5 μM. Here is the method: The reaction mixtures contained 1.0 μM tubulin, 5.0 μM [^3H]colchicine, and 5.0 or 1.0 μM inhibitor, as indicated, and were incubated for 10 min at 37 °C. Complete details were described previously.[36]

Assay [2] concerns tubulin. The assay is described as follows: Inhibition of tubulin polymerization (tubulin assembly, turbidity at 350 nm). The note with it: tubulin at 10 μM, read-out: Tubulin IC50 ± SD. Type of assay: biochemical. On the procedure: The assembly reaction mixtures contained 0.8 M monosodium glutamate (pH 6.6 with HCl in a 2 M stock solution), 10 μM tubulin, 4% (v/v) DMSO, and varying concentrations of drug. Following a 15 min preincubation at 30 °C, samples were chilled on ice, GTP to 0.4 mM was added, and turbidity development was followed at 350 nm in a temperature-controlled recording spectrophotometer for 20 min at 30 °C. The extent of reaction was measured. Full experimental details were previously described.[35]

Assay [3] deals with MCF-7 human breast carcinoma cells. Briefly: MCF-7 cell growth inhibition. Type of assay: cell-based. The note with it: Homo sapiens, MCF7, cells grown for 96 h, read-out: MCF-7 IC50 ± SD.

Consider `COc1ccc(/C=C\c2cc(OC)c(OC)c(OC)c2)cc1O` [CA4, combretastatin A-4, reference compound], for which the “Inhibition of [3H]colchicine binding” value with tubulin [1] (inhibitor at 1 μM, tubulin 1 μM, [3H]colchicine 5 μM) is listed as 78%.
Turning to `COc1cc(C(=O)c2cn(-c3ccccn3)cc2-c2ccc(C)cc2)cc(OC)c1OC` [Compound 3, (1-(Pyridin-2-yl)-4-(4-tolyl)-1H-pyrrol-3-yl)(3,4,5-trimethoxyphenyl)methanone], the IC50 in the assay with tubulin [2] stood at 500 ± 100 nM; in assay [3], 1500 ± 200 nM. Besides, the “Colch. binding (% ± SD)” value in the assay with tubulin [1] came out at 59 ± 0.9%.
`COc1cc(C(=O)c2cn(-c3ccccn3)cc2-c2ccc(C(F)(F)F)cc2)cc(OC)c1OC` [Compound 5, (1-(Pyridin-2-yl)-4-(4-(trifluoromethyl)phenyl)-1H-pyrrol-3-yl)(3,4,5-trimethoxyphenyl)methanone]: the IC50 came out at 2000 ± 100 nM in the assay on tubulin [2] and 652 ± 12.6 nM in assay [3]. The “Colch. binding (% ± SD)” value in the assay on tubulin [1] is 3.2 ± 5%.
In the case of `COc1cc(C(=O)c2cn(-c3ccccn3)cc2-c2ccc(Cl)cc2)cc(OC)c1OC` [Compound 6, (4-(4-Chlorophenyl)-1-(pyridin-2-yl)-1H-pyrrol-3-yl)(3,4,5-trimethoxyphenyl)methanone], the figures for the IC50 (in the assay on tubulin [2]; in assay [3]) were 520 ± 5 nM and 340 ± 60 nM, respectively. In addition, the “Colch. binding (% ± SD)” value in the assay on tubulin [1] is on record as 66 ± 3%.
For `COc1cc(C(=O)c2cn(-c3ccccn3)cc2-c2ccc(N(C)C)cc2)cc(OC)c1OC` [Compound 7, (4-(4-(Dimethylamino)phenyl)-1-(pyridin-2-yl)-1H-pyrrol-3-yl)(3,4,5-trimethoxyphenyl)methanone], the results for the half-inhibitory concentration (IC50) (in the assay on tubulin [2]; in assay [3]) were 430 ± 40 nM and 120 ± 40 nM, respectively. In addition, the “Colch. binding (% ± SD)” value in the assay with tubulin [1] was 72% and 72 ± 0.2%.
Regarding `COc1cc(OC)cc(-c2cn(-c3ccccn3)cc2C(=O)c2cc(OC)c(OC)c(OC)c2)c1` [Compound 8, (4-(3,5-Dimethoxyphenyl)-1-(pyridin-2-yl)-1H-pyrrol-3-yl)(3,4,5-trimethoxyphenyl)methanone], the IC50 with tubulin [2] is 1600 ± 200 nM; in assay [3] it was 2200 ± 400 nM. The “Colch. binding (% ± SD)” value in the assay with tubulin [1] is on record as 21 ± 5%.
Take `COc1cc(C(=O)c2cn(-c3cccnc3)cc2-c2ccc(C)cc2)cc(OC)c1OC` [Compound 9, (1-(Pyridin-3-yl)-4-(4-tolyl)-1H-pyrrol-3-yl)(3,4,5-trimethoxyphenyl)methanone]: the half-inhibitory concentration (IC50) with tubulin [2] was determined as 1900 ± 200 nM; in assay [3] it was 670 ± 200 nM. The “Colch. binding (% ± SD)” value in the assay with tubulin [1] came out at 20 ± 5%.
The matching figures for `COc1ccc(-c2cn(-c3cccnc3)cc2C(=O)c2cc(OC)c(OC)c(OC)c2)cc1` [Compound 10, (4-(4-Methoxyphenyl)-1-(pyridin-3-yl)-1H-pyrrol-3-yl)(3,4,5-trimethoxyphenyl)methanone]: 840 ± 20 nM, 758 ± 9.3 nM and 29 ± 0.8%.
With `COc1cc(C(=O)c2cn(-c3cccnc3)cc2-c2ccc(Cl)cc2)cc(OC)c1OC` [Compound 11, (4-(4-Chlorophenyl)-1-(pyridin-3-yl)-1H-pyrrol-3-yl)(3,4,5-trimethoxyphenyl)methanone], the IC50 in the assay with tubulin [2] is 1500 ± 200 nM; in assay [3], 1500 ± 400 nM. For the same compound, the “Colch. binding (% ± SD)” value in the assay on tubulin [1] is given as 29 ± 4%.
Consider `COc1cc(C(=O)c2cn(-c3cccnc3)cc2-c2ccc(C(F)(F)F)cc2)cc(OC)c1OC` [Compound 12, (1-(Pyridin-3-yl)-4-(4-(trifluoromethyl)phenyl)-1H-pyrrol-3-yl)(3,4,5-trimethoxyphenyl)methanone], for which the IC50 was > 20000 nM in the assay with tubulin [2] and 3900 ± 70 nM in assay [3].
The corresponding values for `COc1cc(C(=O)c2cn(-c3ncccn3)cc2-c2cc(OC)c(OC)c(OC)c2)cc(OC)c1OC` [Compound 17, (1-(Pyrimidin-2-yl)-4-(3,4,5-trimethoxyphenyl)-1H-pyrrol-3-yl)(3,4,5-trimethoxyphenyl)methanone] are > 20000 nM and > 5000 nM.
